Reference: patent US9179678B2, “Substituted [1,2,4]triazoles and substituted tetrazoles as herbicides” (SYNGENTA LIMITED, priority 2012, dated 2015)

Columns and labels:
Format in all cases: in vivo
[1] = tested on: Ipomoea hederacea (IPOHE); experiment: Post-emergence glasshouse herbicide test; details: POST Application, 1000 g/h, after 13 days
Method: (§1) Seeds of a variety of test species are sown in standard soil in pots (Alopecurus myosuroides (ALOMY), Setaria faberi (SETFA), Echinochloa crus-galli (ECHCG), Solanum nigrum (SOLNI), Amaranthus retoflexus (AMARE), Ipomoea hederacea (IPOHE)). After cultivation for one day (pre-emergence) or after 8 days cultivation (post-emergence) under controlled conditions in a glasshouse (at 24/16° C., day/night; 14 hours light; 65% humidity), the plants are sprayed with an aqueous spray solution derived from the formulation of the technical active ingredient in acetone/water (50:50) solution containing 0.5% Tween 20 (polyoxyethelyene sorbitan monolaurate, CAS RN 9005-64-5). Compounds ae applied at 1000 g/h. The test plants are then grown in a glasshouse under controlled conditions in a glasshouse (at 24/16° C., day/night; 14 hours light; 65% humidity) and watered twice daily. After 13 days for pre and post-emergence, the test is evaluated for the percentage damage caused to the plant. The biological activities are shown in the following table on a five point scale (5=80-100%; 4=60-79%; 3=40-59%; 2=20-39%; 1=0-19%).

[2] = tested on: Echinochloa crus-galli (ECHCG); experiment: Post-emergence glasshouse herbicide test; details: POST Application, 1000 g/h, after 13 days
Method: as §1

[3] = tested on: Alopecurus myosuroides (ALOMY); experiment: Post-emergence glasshouse herbicide test; details: POST Application, 1000 g/h, after 13 days
Method: as §1

Solanum nigrum (SOLNI) [4] = experiment: Post-emergence glasshouse herbicide test; details: POST Application, 1000 g/h, after 13 days
Method: as §1

[5] = tested on: Amaranthus retoflexus (AMARE); experiment: Post-emergence glasshouse herbicide test; details: POST Application, 1000 g/h, after 13 days
Method: as §1

Setaria faberi (SETFA) [6] = experiment: Post-emergence glasshouse herbicide test; details: POST Application, 1000 g/h, after 13 days
Method: as §1, with “Compounds ae applied at 1000 g/h.” left out

[7] = tested on: Ipomoea hederacea (IPOHE); experiment: Pre-emergence glasshouse herbicide test; details: PRE Application, 1000 g/h, after 13 days
Method: as §1

[8] = tested on: Echinochloa crus-galli (ECHCG); experiment: Pre-emergence glasshouse herbicide test; details: PRE Application, 1000 g/h, after 13 days
Method: as §1

[9] = tested on: Alopecurus myosuroides (ALOMY); experiment: Pre-emergence glasshouse herbicide test; details: PRE Application, 1000 g/h, after 13 days
Method: as §1

Solanum nigrum (SOLNI) [10] = experiment: Pre-emergence glasshouse herbicide test; details: PRE Application, 1000 g/h, after 13 days
Method: as §1

[11] = tested on: Amaranthus retoflexus (AMARE); experiment: Pre-emergence glasshouse herbicide test; details: PRE Application, 1000 g/h, after 13 days
Method: as §1

Setaria faberi (SETFA) [12] = experiment: Pre-emergence glasshouse herbicide test; details: PRE Application, 1000 g/h, after 13 days
Method: as §1

Structure (SMILES)	percentage damage caused to the plant, IPOHE [1]	percentage damage caused to the plant, ECHCG [2]	percentage damage caused to the plant, ALOMY [3]	percentage damage caused to the plant, SOLNI (Solanum nigrum (SOLNI) [4])	percentage damage caused to the plant, AMARE [5]	percentage damage caused to the plant, SETFA (Setaria faberi (SETFA) [6])	percentage damage caused to the plant, IPOHE [7]	percentage damage caused to the plant, ECHCG [8]	percentage damage caused to the plant, ALOMY [9]	percentage damage caused to the plant, SOLNI (Solanum nigrum (SOLNI) [10])	percentage damage caused to the plant, AMARE [11]	percentage damage caused to the plant, SETFA (Setaria faberi (SETFA) [12])
Cn1nnnc1NC(=O)c1nc2cccnc2n(C)c1=O [Compound 4.001]	4 (4=60-79%)	5 (5=80-100%)	1 (1=0-19%)	5 (5=80-100%)	5 (5=80-100%)	2 (2=20-39%)	3 (3=40-59%)	4 (4=60-79%)	1 (1=0-19%)	5 (5=80-100%)	5 (5=80-100%)	1 (1=0-19%)
Cn1nnnc1NC(=O)c1nc2ccccc2n(-c2ccccc2)c1=O [Compound 5.004]	5 (5=80-100%)	3 (3=40-59%)	2 (2=20-39%)	5 (5=80-100%)	5 (5=80-100%)	2 (2=20-39%)	5 (5=80-100%)	5 (5=80-100%)	3 (3=40-59%)	5 (5=80-100%)	5 (5=80-100%)	4 (4=60-79%)
Cn1nnnc1NC(=O)c1nc2ccccc2n(-c2cccc([N+](=O)[O-])c2)c1=O [Compound 5.025]	4 (4=60-79%)	5 (5=80-100%)	5 (5=80-100%)	5 (5=80-100%)	5 (5=80-100%)	5 (5=80-100%)	4 (4=60-79%)	3 (3=40-59%)	2 (2=20-39%)	5 (5=80-100%)	5 (5=80-100%)	2 (2=20-39%)
Cn1nnnc1NC(=O)c1cc2ccccc2n(-c2ccsc2)c1=O [Compound 7.002]	2 (2=20-39%)	2 (2=20-39%)	1 (1=0-19%)	5 (5=80-100%)	3 (3=40-59%)	1 (1=0-19%)	2 (2=20-39%)	1 (1=0-19%)	1 (1=0-19%)	3 (3=40-59%)	2 (2=20-39%)	1 (1=0-19%)
Cc1ccccc1-n1c(=O)c(C(=O)Nc2nnnn2C)nc2ccccc21 [Compound 5.034]	5 (5=80-100%)	5 (5=80-100%)	4 (4=60-79%)	5 (5=80-100%)	5 (5=80-100%)	5 (5=80-100%)	5 (5=80-100%)	5 (5=80-100%)	5 (5=80-100%)	5 (5=80-100%)	5 (5=80-100%)	5 (5=80-100%)
Cn1nnnc1NC(=O)c1nc2cc(Cl)ccc2n(-c2ccccc2)c1=O [Compound 5.007]	5 (5=80-100%)	2 (2=20-39%)	2 (2=20-39%)	5 (5=80-100%)	5 (5=80-100%)	5 (5=80-100%)	5 (5=80-100%)	2 (2=20-39%)	2 (2=20-39%)	5 (5=80-100%)	5 (5=80-100%)	5 (5=80-100%)
COc1ccc(-n2c(=O)c(C(=O)Nc3nnnn3C)nc3ccccc32)cc1Cl [Compound 5.039]	5 (5=80-100%)	3 (3=40-59%)	1 (1=0-19%)	5 (5=80-100%)	5 (5=80-100%)	1 (1=0-19%)	2 (2=20-39%)	3 (3=40-59%)	1 (1=0-19%)	5 (5=80-100%)	5 (5=80-100%)	2 (2=20-39%)
Cn1nnnc1NC(=O)c1nc2cccnc2n(-c2ccccc2)c1=O [Compound 4.002]	1 (1=0-19%)	1 (1=0-19%)	1 (1=0-19%)	3 (3=40-59%)	2 (2=20-39%)	1 (1=0-19%)	1 (1=0-19%)	1 (1=0-19%)	1 (1=0-19%)	1 (1=0-19%)	1 (1=0-19%)	1 (1=0-19%)
Cn1nnnc1NC(=O)c1nc2ccccc2n(-c2ccc(Cl)c(Cl)c2)c1=O [Compound 5.035]	5 (5=80-100%)	2 (2=20-39%)	2 (2=20-39%)	5 (5=80-100%)	5 (5=80-100%)	4 (4=60-79%)	5 (5=80-100%)	2 (2=20-39%)	3 (3=40-59%)	5 (5=80-100%)	5 (5=80-100%)	5 (5=80-100%)
Cc1nc2c(cc1F)cc(C(=O)Nc1nnnn1C)c(=O)n2-c1ccccc1 [Compound 6.003]	5 (5=80-100%)	4 (4=60-79%)	1 (1=0-19%)	5 (5=80-100%)	5 (5=80-100%)	3 (3=40-59%)	3 (3=40-59%)	3 (3=40-59%)	1 (1=0-19%)	5 (5=80-100%)	5 (5=80-100%)	1 (1=0-19%)
CCn1c(=O)c(C(=O)Nc2nnnn2C)cc2cnc(Cl)cc21 [Compound 2.002]	5 (5=80-100%)	2 (2=20-39%)	1 (1=0-19%)	5 (5=80-100%)	5 (5=80-100%)	1 (1=0-19%)	3 (3=40-59%)	2 (2=20-39%)	1 (1=0-19%)	4 (4=60-79%)	5 (5=80-100%)	1 (1=0-19%)
